For data set [1], the system named is human C20 microglial cells. In words: Inhibition of fMLF-induced Ca2+ influx in C20 microglial cells. The class given is cell-based. Particulars: 10 min, pure compounds, 10 min incubation, induced by 10 μM fMLF. The protocol: (§1) Human C20 microglial cells were kindly provided by Dr. David Alvarez-Carbonell (Department of Molecular Biology and Microbiology, Case Western Reserve University, Cleveland, OH, USA); these are immortalized primary human microglial cells that maintain characteristics of primary microglial cells. C20 cells were grown at 37 °C and 5% CO2 in DMEM:F12 medium supplemented with 10% FBS, 2.5 mM L-glutamine, 110 mg/L sodium pyruvate, 15 mM HEPES, 100 μg/mL normocin, 100 μg/mL streptomycin, and 100 U/mL penicillin.
(§2) For analysis of Ca^2+ influx in C20 microglial cells, the cells were plated in 96-well black, clear bottom plates at 10^4 cells/well in DMEM/F12 medium containing 10% FBS. The cells were treated with 200 nM PMA for 24 h, and the medium was changed every day for 5 days. On day 5, the cells were loaded with FLIPR Calcium 5 (Molecular Devices) at a volume ratio of 1:1 for 30 min at 37 °C in the dark. The plates were then placed in a FlexStation 3 fluorometer, and basal fluorescence was measured (λex = 485 nm, λem = 538 nm). Essential oils or individual compounds of interest were added manually (final concentration of DMSO was 1%), and fluorescence was monitored for 2 min to assess the direct effects of these treatments on [Ca^2+]i. After a 10 min incubation at 37 °C, the fluorescence baseline was recorded again, and 10 µM fMLF was added to evaluate inhibitory effects on agonist-induced [Ca^2+]i. Responses were normalized to the response induced by 10 µM fMLF.
(§3) For all Ca^2+ influx experiments, curve fitting (at least five or six points) and calculation of median effective concentration values (EC50 or IC50) were performed by nonlinear regression analysis of the dose–response curves generated using Prism 7 (GraphPad Software, Inc., San Diego, CA, USA).

Data set [2] has as its system human neutrophils. In words: Neutrophil chemotaxis assay (fMLF-induced). It is filed as cell-based. Particulars: Homo sapiens, Neutrophil; pure compounds; chemotaxis induced by 1 nM fMLF. The source says:
(§4) For isolation of human neutrophils, blood was collected from healthy donors in accordance with a protocol approved by the Institutional Review Board at Montana State University (Protocol #MQ041017), as described previously. Isolated neutrophils were washed and resuspended in HBSS^–. Neutrophil preparations were routinely >95% pure and >98% viable. Neutrophils were obtained from multiple different donors (n = 8); however, the cells from different donors were never pooled during experiments.
Human neutrophils were resuspended in HBSS^+ containing 2% (v/v) heat-inactivated fetal bovine serum (2 × 10^6 cells/mL), and chemotaxis was analyzed in 96-well ChemoTx chemotaxis chambers (Neuroprobe, Gaithersburg, MD), as described previously. Curve fitting (at least eight to nine points) and calculation of median effective concentration values (IC50) were performed by nonlinear regression analysis of the dose-response curves generated using GraphPad Prism 8.

The subject of data set [3] is HL60 cells. The data set can be described thus: Cytotoxicity assay (CellTiter-Glo) in HL60 cells. It is filed as cell-based, human. Particulars: oils up to 25 µg/mL, compounds up to 25 µM. The method, then:
Cytotoxicity of essential oils and pure compounds was analyzed in human promyelocytic HL60 cells using a CellTiter-Glo Luminescent Cell Viability Assay Kit (Promega), as described previously.
(In general: ATP-based viability assays read luminescence as a measure of living cells.)

Data set [4] concerns the target T1, PIM1 (Homo sapiens, UniProt P11309).
T1 construct: purchased Eurofins Pharma Discovery, San Diego, CA, USA (KINOMEscan service)
The data set can be described thus: KINOMEscan kinase Kd determination, PIM1. The class given is binding. Particulars: maximum concentration of 33 µM. The method, then:
(§5) KINOMEscan®® was used to determine the dissociation constant (Kd) of the indicated sesquiterpenes for selected kinases (Eurofins Pharma Discovery, San Diego, CA, USA). […] Assays were performed in duplicate, and the average mean value is shown.

Data set [5] has as its system human C20 microglial cells. In words: Ca2+ influx (direct effect) in C20 microglial cells. The class given is cell-based. Particulars: Homo sapiens; pure compounds; direct effect on [Ca2+]i; mean ± SD of three experiments. The protocol:
as §1, §2, §3

Data set [6] addresses T2, FPR1-HL60 cells (Homo sapiens, UniProt P21462).
T2 construct: expressed in transfected cells
T2 sequence (P21462 1-350): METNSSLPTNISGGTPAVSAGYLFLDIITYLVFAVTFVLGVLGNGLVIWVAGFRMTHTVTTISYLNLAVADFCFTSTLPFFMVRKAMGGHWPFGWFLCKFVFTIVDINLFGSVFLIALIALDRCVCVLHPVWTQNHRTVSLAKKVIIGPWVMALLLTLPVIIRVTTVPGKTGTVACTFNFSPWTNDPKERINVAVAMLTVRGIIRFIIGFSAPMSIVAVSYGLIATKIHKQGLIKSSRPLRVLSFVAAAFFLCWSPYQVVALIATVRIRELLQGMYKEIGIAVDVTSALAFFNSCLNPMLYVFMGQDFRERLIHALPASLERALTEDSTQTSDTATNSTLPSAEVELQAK
The data set can be described thus: Inhibition of fMLF-induced Ca2+ influx in FPR1-HL60 cells. Particulars: pure compounds; 10 min preincubation; induced by 5 nM fMLF. It is filed as cell-based. The method, then:
(§6) Human promyelocytic leukemia HL60 cells stably transfected with FPR1 (FPR1-HL60 cells) or FPR2 (FPR2-HL60 cells) were kindly provided by Dr. Marie-Josephe Rabiet, INSERM, Grenoble, France. These cells were cultured in RPMI 1640 medium containing 10% heat-inactivated fetal calf serum, 10 mM HEPES, 100 μg/mL streptomycin, 100 U/mL penicillin, and G418 (1 mg/mL). G418 was removed before assays were performed.
(§7) Changes in intracellular Ca^2+ concentrations ([Ca^2+]i) in human neutrophils were measured with a FlexStation 3 scanning fluorometer (Molecular Devices), as previously described. To assess the direct effects of test compounds or pure essential oils on Ca^2+ influx, the compounds/oils were added to the wells (final concentration of DMSO was 1%), and changes in fluorescence were monitored (λex = 485 nm, λem = 538 nm) every 5 s for 240 s at room temperature after addition of the test compound. To evaluate inhibitory effects of the compounds on FPR1/FPR2-dependent Ca^2+ influx, the compounds were added to the wells (final concentration of DMSO was 1%) with cells (human neutrophils or FPR1/FPR2 HL60 cells). The samples were preincubated for 10 min, followed by addition of 5 nM fMLF (for human neutrophils or FPR1-HL60 cells) or 5 nM WKYMVM (for FPR2-HL60 cells). The maximum change in fluorescence, expressed in arbitrary units over baseline, was used to determine the agonist response. Responses were normalized to the response induced by 5 nM fMLF or 5 nM WKYMVM, which were assigned as 100%.
as §3

Data set [7] deals with T3, MAPKAPK2 (Homo sapiens, UniProt P49137).
T3 construct: purchased Eurofins Pharma Discovery, San Diego, CA, USA (KINOMEscan service)
T3 sequence (P49137 whole entry): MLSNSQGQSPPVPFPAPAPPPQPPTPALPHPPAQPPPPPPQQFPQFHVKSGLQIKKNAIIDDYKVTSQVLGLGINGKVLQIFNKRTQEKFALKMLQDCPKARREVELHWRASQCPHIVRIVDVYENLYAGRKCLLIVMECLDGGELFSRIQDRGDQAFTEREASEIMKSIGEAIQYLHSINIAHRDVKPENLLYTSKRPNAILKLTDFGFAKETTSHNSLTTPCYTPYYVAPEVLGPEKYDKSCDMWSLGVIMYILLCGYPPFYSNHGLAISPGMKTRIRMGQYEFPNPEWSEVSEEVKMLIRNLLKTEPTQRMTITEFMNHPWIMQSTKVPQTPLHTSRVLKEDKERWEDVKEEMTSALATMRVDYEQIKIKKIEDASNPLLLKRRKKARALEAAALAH
The data set can be described thus: KINOMEscan kinase Kd determination, MAPKAPK2. The class given is binding. Particulars: maximum concentration of 33 µM. The method, then:
as §5

Data set [8] deals with human neutrophils. In words: Inhibition of fMLF-induced Ca2+ influx in human neutrophils. It is filed as cell-based. Particulars: Homo sapiens, Neutrophil; pure compounds; 10 min preincubation; induced by 5 nM fMLF.
Description: as §4, §7, §3

Data set [9] has as its target T4, JNK3 (Homo sapiens, UniProt P53779).
T4 construct: purchased Eurofins Pharma Discovery, San Diego, CA, USA (KINOMEscan service)
The data set can be described thus: KINOMEscan kinase Kd determination, JNK3. Particulars: maximum concentration of 33 µM. It is filed as binding. The protocol:
as §5

Data set [10] concerns the target T5, FPR2-HL60 cells (Homo sapiens, UniProt P25090).
T5 construct: expressed in transfected cells
T5 sequence (P25090 1-351): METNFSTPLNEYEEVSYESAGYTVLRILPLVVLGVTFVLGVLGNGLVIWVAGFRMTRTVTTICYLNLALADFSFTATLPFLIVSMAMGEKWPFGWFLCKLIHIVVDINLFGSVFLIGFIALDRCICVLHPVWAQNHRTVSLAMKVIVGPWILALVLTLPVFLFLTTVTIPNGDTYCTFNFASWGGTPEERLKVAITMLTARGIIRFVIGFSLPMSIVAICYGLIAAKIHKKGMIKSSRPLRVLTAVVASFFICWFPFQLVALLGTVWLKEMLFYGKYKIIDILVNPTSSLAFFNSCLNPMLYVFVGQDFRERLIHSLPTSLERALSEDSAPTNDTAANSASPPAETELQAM
The data set can be described thus: Inhibition of WKYMVM-induced Ca2+ influx in FPR2-HL60 cells. The class given is cell-based. Particulars: pure compounds; 10 min preincubation; induced by 5 nM WKYMVM. The method, then:
as §6, §7, §3

The test system of data set [11] is human neutrophils. The data set can be described thus: Ca2+ influx (direct effect) in human neutrophils. It is filed as cell-based. Particulars: Homo sapiens, Neutrophil; pure compounds; direct effect on [Ca2+]i; mean ± SD of three experiments.
Description: as §4, §7, §3

T1 sequence (P11309 whole entry): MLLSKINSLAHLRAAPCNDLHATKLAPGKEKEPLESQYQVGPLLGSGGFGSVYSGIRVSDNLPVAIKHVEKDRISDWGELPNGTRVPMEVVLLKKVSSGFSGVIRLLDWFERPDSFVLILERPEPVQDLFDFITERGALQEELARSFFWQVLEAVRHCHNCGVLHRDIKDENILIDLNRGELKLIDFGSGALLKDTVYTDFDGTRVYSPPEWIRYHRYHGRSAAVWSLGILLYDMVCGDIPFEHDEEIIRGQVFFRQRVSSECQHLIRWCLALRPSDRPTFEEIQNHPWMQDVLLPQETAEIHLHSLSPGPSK
T4 sequence (P53779 whole entry): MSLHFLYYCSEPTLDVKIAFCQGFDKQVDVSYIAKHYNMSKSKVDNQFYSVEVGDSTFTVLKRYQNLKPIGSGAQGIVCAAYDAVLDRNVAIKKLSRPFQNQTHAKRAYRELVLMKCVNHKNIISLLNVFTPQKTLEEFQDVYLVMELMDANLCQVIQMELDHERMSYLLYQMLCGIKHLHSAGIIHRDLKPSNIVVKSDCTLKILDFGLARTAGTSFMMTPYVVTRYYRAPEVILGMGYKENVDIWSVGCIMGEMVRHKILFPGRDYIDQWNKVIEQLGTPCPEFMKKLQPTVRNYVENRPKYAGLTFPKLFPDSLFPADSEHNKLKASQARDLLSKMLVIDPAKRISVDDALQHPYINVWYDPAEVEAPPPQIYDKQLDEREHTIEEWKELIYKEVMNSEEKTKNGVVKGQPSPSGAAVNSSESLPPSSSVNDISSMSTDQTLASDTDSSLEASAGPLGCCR

By IC50 is commonly meant the midpoint of a concentration-inhibition curve. The low end stands for greater potency, the high end for weaker potency. The term EC50 denotes the concentration that produces a half-maximal response. For `CC(C)=C1C/C=C(\C)CC/C=C(\C)CC1=O` [Germacrone], the IC50 in data set [1] was determined as 10.7 ± 2.3 µM; in data set [2], 8.5 ± 0.6 µM; in data set [6], 27.7 ± 2.9 µM; in data set [8] it was 27.9 ± 8.9 µM; in data set [10], 25 ± 7.2 µM. Besides, the “Cell viability (cytotoxicity), 30 min incubation” value in data set [3] was “minimal effects on cell viability”. For the same molecule, the “Binding affinity (Kd) toward PIM1” value in [4] was “did not observe any binding activity”. In addition, the EC50 is 27.7 ± 2.5 µM in data set [5] and 24 ± 4.6 µM in [11]. Also, the “Binding affinity (Kd) toward MAPKAPK2” value in data set [7] was “did not observe any binding activity”. The “Binding affinity (Kd) toward JNK3” value in [9] is listed as “did not observe any binding activity”.

In the case of `C=C[C@]1(C)Cc2occ(C)c2C[C@H]1C(=C)C` [Curzerene], the IC50 was 30.7 ± 4.4 µM in data set [1]; 37.9 ± 2.2 µM in data set [2]; 21.8 ± 6.1 µM in data set [6]; 11 ± 3.8 µM in data set [8]; 16.7 ± 5.5 µM in [10]. Moreover, in data set [3], the “Cell viability (cytotoxicity), 30 min incubation” value is “minimal effects on cell viability”. Also, the “Binding affinity (Kd) toward PIM1” value in data set [4] is on record as “did not observe any binding activity”. Further, the EC50 stood at 25.9 ± 5.2 µM in [5] and 37.6 ± 8.4 µM in data set [11]. Further, in data set [7], the “Binding affinity (Kd) toward MAPKAPK2” value is given as “did not observe any binding activity”. The “Binding affinity (Kd) toward JNK3” value in data set [9] is listed as “did not observe any binding activity”.

As to `C[C@@H]1CC[C@H]2[C@@H]1[C@H]1[C@@H](CC[C@]2(C)O)C1(C)C` [Viridiflorol, viridiflorol], the IC50 in [1] came to 22.6 ± 3.1 µM; in data set [2], 18.3 ± 4.1 µM; in [6] it was 19.5 ± 4.7 µM; in data set [8], 7.8 ± 2.3 µM; in [10], 10.7 ± 3.8 µM. Further, the “Cell viability (cytotoxicity), 30 min incubation” value in [3] is given as “minimal effects on cell viability”. For the same molecule, the “Cell viability (cytotoxicity), 2 h incubation” value in [3] (2 h) was “a little more cytotoxicity”. Besides, the “Binding affinity (Kd) toward PIM1” value in data set [4] is “did not observe any binding activity”. Besides, the EC50 in [5] was 27.8 ± 4.6 µM; in data set [11], 6.8 ± 2.3 µM. Further, the “Binding affinity (Kd) toward MAPKAPK2” value in data set [7] is “did not observe any binding activity”. Moreover, in [9], the “Binding affinity (Kd) toward JNK3” value is given as “did not observe any binding activity”.

Source of the values: publication PMC8232766, “Chemical Composition and Immunomodulatory Activity of Essential Oils from Rhododendron albiflorum” (Molecules, 2021).
